Reference: BindingDB's records for doi:10.1016/j.bmcl.2015.06.011 (Al-Zaytoonah University of Jordan, 2015)

Assay: Inhibition of PI3Kalpha H1047R mutant in human HCT116 cells assessed as cell growth inhibition after 24 hrs by MTT assay

Row | Structure (SMILES) | IC50
1 | O=C(c1ccccc1)C(O)c1ccccc1 (stereo not drawn) | 2120 µM
2 | COc1ccc(C(=O)C(OC(=O)c2ccc(F)cc2)c2ccc(OC)cc2)cc1 (stereo not drawn) | 2820 µM
3 | O=C(OC(C(=O)c1ccccc1)c1ccccc1)c1ccc(Cl)cc1 (stereo not drawn) | 730 µM
4 | O=C(OC(C(=O)c1ccccc1)c1ccccc1)c1ccc([N+](=O)[O-])cc1 (stereo not drawn) | 880 µM
5 | COc1ccc(C(=O)C(O)c2ccc(OC)cc2)cc1 (stereo not drawn) [2-hydroxy-1,2-bis(4-methoxyphenyl)ethan-1-one] | 1170 µM

Other lines, results leading:

Row | IC50 | Structure (SMILES)
6 | 1290 µM | O=C(OC(C(=O)c1ccccc1)c1ccccc1)c1ccc(F)cc1 (stereo not drawn)
7 | 970 µM | O=C(OC(C(=O)c1ccccc1)c1ccccc1)c1cccc(F)c1 (stereo not drawn)
8 | 910 µM | O=C(OC(C(=O)c1ccccc1)c1ccccc1)c1ccccc1F (stereo not drawn)
9 | 2660 µM | O=C(OC(C(=O)c1ccccc1)c1ccccc1)c1ccccc1 (stereo not drawn)

Assay: Inhibition of PI3Kalpha in human HCT116 cells assessed as cell growth inhibition after 24 hrs by MTT assay

Row | Structure (SMILES) | IC50
10 | O=C(c1ccccc1)C(O)c1ccccc1 (stereo not drawn) | 2120 µM
11 | COc1ccc(C(=O)C(OC(=O)c2ccc(F)cc2)c2ccc(OC)cc2)cc1 (stereo not drawn) | 2820 µM
12 | O=C(OC(C(=O)c1ccccc1)c1ccccc1)c1ccc(Cl)cc1 (stereo not drawn) | 730 µM
13 | O=C(OC(C(=O)c1ccccc1)c1ccccc1)c1ccc([N+](=O)[O-])cc1 (stereo not drawn) | 880 µM
14 | COc1ccc(C(=O)C(O)c2ccc(OC)cc2)cc1 (stereo not drawn) [2-hydroxy-1,2-bis(4-methoxyphenyl)ethan-1-one] | 1170 µM

Now from value to compound:

Row | IC50 | Structure (SMILES)
15 | 1290 µM | O=C(OC(C(=O)c1ccccc1)c1ccccc1)c1ccc(F)cc1 (stereo not drawn)
16 | 970 µM | O=C(OC(C(=O)c1ccccc1)c1ccccc1)c1cccc(F)c1 (stereo not drawn)
17 | 910 µM | O=C(OC(C(=O)c1ccccc1)c1ccccc1)c1ccccc1F (stereo not drawn)
18 | 2660 µM | O=C(OC(C(=O)c1ccccc1)c1ccccc1)c1ccccc1 (stereo not drawn)
